Data as given in patent US20130243707A1, “TOPICAL COMPOSITIONS” (priority 2006, published 2013).

Assays:
[1] = Solubility of Drugs in single solvent alcohols; type: physicochemical
Procedure: Briefly, the indicated NSAID was weighed and added to a beaker. To each beaker, incremental amounts of the indicated solvent was weighed and added. The beakers were sealed with aluminum foil and placed at room temperature or in a 35 C water bath for 20-30 minutes. They beakers were shaken frequently to mix the contents. After 20-30 minutes the solvent alcohols were examined. If a single phasic solution was not yet achieved, an additional aliquot of the solvent was added and the cycle was repeated until complete solvation had occurred.

[2] = Maximal NSAID and water concentrations in PG/PEG solvent systems; type: physicochemical; set-up: B maximum: unit not given here
From the text: With the teaching herein, useful Drug and water concentrations can be determined for a given solvent system. Such concentrations can be described by the equation W=mD+b, where W is a water concentration, D is the Drug concentration, b is the y intercept, and m is the slope.

[3] = Super-solvent effect (Drug solubilized by combinations of solvent alcohols); type: physicochemical
Procedure: Methods. First, the amount of each solvent alcohol required to solubilize one gram of NSAID was determined (saturation amount). Next, each combination of 2, 3 and 4 solvent alcohols were made using the saturation amounts determined by the first step. Finally, the amount of drug that could be solubilized by the solvent systems (i.e. the solvent alcohol combinations) was determined. The super-solvent effect was determined using this protocol, where percent=actual grams solubilized divided by the predicted grams (based upon the first step) expressed as percent increase (e.g. if twice the predicted amount could be solubilized, the super-solvent effect would be % 100.

[4] = cited from earlier work
[5] = cited from earlier work; remark: listed apart in the source

CC(=O)Nc1ccc(O)cc1 [Acetaminophen]
Maximum Drug Concentration in single alcohol: EtOH ([1]; Solubility at 35 C): 16.67 | Maximum Drug Concentration in single alcohol: IPA ([1]; Solubility at 35 C): 8.33 | Maximum Drug Concentration in single alcohol: PEG ([1]; Solubility at 35 C): 10.00 | Maximum Drug Concentration in single alcohol: PG ([1]; Solubility at 35 C): 10.00 | Maximum Drug Concentration in single alcohol: EtOH ([1]; Solubility at Room Temperature): 9.52 | Maximum Drug Concentration in single alcohol: IPA ([1]; Solubility at Room Temperature): 4.35 | Maximum Drug Concentration in single alcohol: PEG ([1]; Solubility at Room Temperature): 5.41 | Maximum Drug Concentration in single alcohol: PG ([1]; Solubility at Room Temperature): 4.76 | B maximum ([2]; PG/PEG 1/3, b of y = −5.7055x + b): 100 | B maximum ([2]; PG/PEG 1/4, b of y = −6.4787x + b): 118 | B maximum ([2]; PG/PEG 2/2, b of y = −11.52x + b): 154 | B maximum ([2]; PG/PEG 3/4, b of y = −7.7243x + b): 124 | B maximum ([2]; PG/PEG 4/3, b of y = −6.3927x + b): 102 | Super-solvent Effect ([3]; EtOH 5 gr, IPA 11 gr): 21.6% | Super-solvent Effect ([3]; PEG 400 9 gr, EtOH 5 gr): 60.0% | Super-solvent Effect ([3]; PEG 400 9 gr, EtOH 5 gr, IPA 11 gr): 55.6% | Super-solvent Effect ([3]; PEG 400 9 gr, IPA 11 gr): 63.8% | Super-solvent Effect ([3]; PG 9 gr, EtOH 5 gr): 21.2% | Super-solvent Effect ([3]; PG 9 gr, EtOH 5 gr, IPA 11 gr): 14.6% | Super-solvent Effect ([3]; PG 9 gr, IPA 11 gr): 22.2% | Super-solvent Effect ([3]; PG 9 gr, PEG 400 9 gr): 22.0% | Super-solvent Effect ([3]; PG 9 gr, PEG 400 9 gr, EtOH 5 gr): 41.8% | Super-solvent Effect ([3]; PG 9 gr, PEG 400 9 gr, EtOH 5 gr, IPA 11 gr): 52.5% | Super-solvent Effect ([3]; PG 9 gr, PEG 400 9 gr, IPA 11 gr): 43.3%

CCCCOc1ccc(CC(=O)NO)cc1 [Bufexamac]
Maximum Drug Concentration in single alcohol: EtOH ([1]; Solubility at Room Temperature): 1.23 | Maximum Drug Concentration in single alcohol: IPA ([1]; Solubility at Room Temperature): 0.62

O=C(O)Cc1ccccc1Nc1c(Cl)cccc1Cl [Diclofenac]
Maximum Drug Concentration in single alcohol: EtOH ([1]; Solubility at 35 C): 14.29 | Maximum Drug Concentration in single alcohol: PEG ([1]; Solubility at 35 C): 8.33 | Maximum Drug Concentration in single alcohol: PG ([1]; Solubility at 35 C): 14.29 | Maximum Drug Concentration in single alcohol: EtOH ([1]; Solubility at Room Temperature): 11.11 | Maximum Drug Concentration in single alcohol: PEG ([1]; Solubility at Room Temperature): 7.69 | Maximum Drug Concentration in single alcohol: PG ([1]; Solubility at Room Temperature): 14.29 | Super-solvent Effect ([3]; PEG 400 11 gr, EtOH 6 gr): 81.0% | Super-solvent Effect ([3]; PG 6 gr, EtOH 6 gr): 90.9% | Super-solvent Effect ([3]; PG 6 gr, PEG 400 11 gr): 62.2% | Super-solvent Effect ([3]; PG 6 gr, PEG 400 11 gr, EtOH 6 gr): 54.8%

COc1ccc2c(c1)c(CC(=O)O)c(C)n2C(=O)c1ccc(Cl)cc1 [Indomethacin]
Log P [4]: 3.08 | Maximum Drug Concentration in single alcohol: EtOH ([1]; Solubility at Room Temperature): 0.25 | Maximum Drug Concentration in single alcohol: IPA ([1]; Solubility at Room Temperature): 0.10 | Maximum Drug Concentration in single alcohol: PEG ([1]; Solubility at Room Temperature): 0.05 | Maximum Drug Concentration in single alcohol: PG ([1]; Solubility at Room Temperature): 0.05

COc1ccc2cc([C@H](C)C(=O)O)ccc2c1 [Naproxen]
Water Added Until Precipitation Occurs ([2]; Naproxen 0.1215 gm, PG 2 gm, PEG 400 2 gm): 3.5 gm | Water Added Until Precipitation Occurs ([2]; Naproxen 0.1755 gm, PG 1 gm, PEG 400 3 gm): 3.5 gm | Water Added Until Precipitation Occurs ([2]; Naproxen 0.1755 gm, PG 4 gm, PEG 400 3 gm): 5 gm | Water Added Until Precipitation Occurs ([2]; Naproxen 0.2295 gm, PG 3 gm, PEG 400 4 gm): 6.5 gm | Water Added Until Precipitation Occurs ([2]; Naproxen 0.27 gm, PG 1 gm, PEG 400 4 gm): 4.5 gm | Water Added Until Precipitation Occurs ([2]; Naproxen 0.324 gm, PG 2 gm, PEG 400 2 gm): 1 gm | Water Added Until Precipitation Occurs ([2]; Naproxen 0.405 gm, PG 2 gm, PEG 400 2 gm): 0.5 gm | Water Added Until Precipitation Occurs ([2]; Naproxen 0.468 gm, PG 1 gm, PEG 400 3 gm): 1 gm | Water Added Until Precipitation Occurs ([2]; Naproxen 0.468 gm, PG 4 gm, PEG 400 3 gm): 2.5 gm | Water Added Until Precipitation Occurs ([2]; Naproxen 0.54 gm, PG 1 gm, PEG 400 4 gm): 2.5 gm | Water Added Until Precipitation Occurs ([2]; Naproxen 0.585 gm, PG 1 gm, PEG 400 3 gm): 0.5 gm | Water Added Until Precipitation Occurs ([2]; Naproxen 0.585 gm, PG 4 gm, PEG 400 3 gm): 1.5 gm | Water Added Until Precipitation Occurs ([2]; Naproxen 0.612 gm, PG 3 gm, PEG 400 4 gm): 2.5 gm | Water Added Until Precipitation Occurs ([2]; Naproxen 0.675 gm, PG 1 gm, PEG 400 4 gm): 1 gm | Water Added Until Precipitation Occurs ([2]; Naproxen 0.765 gm, PG 3 gm, PEG 400 4 gm): 1.5 gm | Drug concentration range obtained at saturation ([2]; PG and PEG 50% to 82%, PG to PEG ratio 0.33 to 1.3): up to 13% | B maximum (intercept of water versus Naproxen line) ([2]; PG/PEG 1/3): 52.794 | B maximum (intercept of water versus Naproxen line) ([2]; PG/PEG 1/4): 47.637 | B maximum (intercept of water versus Naproxen line) ([2]; PG/PEG 2/2): 54.158 | B maximum (intercept of water versus Naproxen line) ([2]; PG/PEG 3/4): 52.964 | B maximum (intercept of water versus Naproxen line) ([2]; PG/PEG 4/3): 56.913

O=C(O)c1cccnc1Nc1cccc(C(F)(F)F)c1 [Niflumic]
Maximum Drug Concentration in single alcohol: EtOH ([1]; Solubility at Room Temperature): 3.23

C=CCOc1ccc(CC(=O)O)cc1Cl [alclofenac]
Log P [4]: 2.47 | pKa [5]: 4.26

O=C(O)Cc1ccc(-c2ccccc2)cc1 [felbinac]
pKa [5]: 4.29

O=C(O)c1ccccc1Nc1cccc(C(F)(F)F)c1 [flufenamic acid]
Log P [4]: 5.62

Cc1cccc(Nc2ccccc2C(=O)O)c1C [mefenamic acid]
Log P [4]: 5.12 | pKa [5]: 3.69

CN1C(C(=O)Nc2ccccn2)=C(O)c2ccccc2S1(=O)=O [piroxicam]
Log P [4]: 1.8 | pKa [5]: 3.6

CC(C(=O)O)c1ccc(C(=O)c2ccccc2)s1 (stereo not drawn) [tiaprofenic acid]
pKa [5]: 4.05
